Data from paper PMC9043270, “β-Blockers bearing hydroxyethylamine and hydroxyethylene as potential SARS-CoV-2 Mpro inhibitors: rational based design, in silico, in vitro, and SAR studies for lead optimization” (RSC Advances, 2021).

Biological target: T1, SARS-CoV-2 Mpro (3CL protease) (Severe acute respiratory syndrome coronavirus 2, UniProt P0DTD1)
T1 construct: gene rep
Assay: fluorogenic substrate 3CL protease assay kit
Assay type: biochemical
Conditions: read-out: IC50 (μg ml^-1) (converted)
From the text: fluorogenic substrate 3CL protease assay kit on SARS-CoV-2 Mpro (3CL protease)

SMILES	IC50 [µM]
COc1ccccc1OCCNCC(O)COc1cccc2[nH]c3ccccc3c12 (stereo not shown) [compound 17, Carvedilol]	503
Cc1cccc(C)c1OCC(=O)N[C@@H](Cc1ccccc1)[C@@H](O)C[C@H](Cc1ccccc1)NC(=O)[C@H](C(C)C)N1CCCNC1=O [Lopinavir]	117
OC(CNCC(O)C1CCc2cc(F)ccc2O1)C1CCc2cc(F)ccc2O1 (stereo not shown) [compound 20, Nebivolol]	148
CC(C)NCC(O)COc1ccc(COCCOC(C)C)cc1 (stereo not shown) [compound 8, Bisoprolol]	364
